Test results reported in ChEMBL document CHEMBL3885881, “DrugMatrix”.

Organism: Rattus norvegicus
Assay: DrugMatrix - Regimen: Daily Repeat
Type: toxicity, organism-based, Sprague-Dawley
Design: regimen Daily Repeat, gender Male, age 6-8 weeks
Details: in vivo, po, route oral GAVAGE, vehicle 100 % WATER; for ABSOLUTE BASOPHIL / ABSOLUTE EOSINOPHIL / ABSOLUTE LYMPHOCYTE / ABSOLUTE MONOCYTE / ABSOLUTE SEGMENTED NEUTROPHIL / BASOPHIL / EOSINOPHIL / ERYTHROCYTE COUNT / HEMATOCRIT / HEMOGLOBIN / LEUKOCYTE COUNT / LYMPHOCYTE / MEAN CORPUSCULAR HEMOGLOBIN / MEAN CORPUSCULAR HEMOGLOBIN CONCENTRATION / MEAN CORPUSCULAR VOLUME / MONOCYTE / NEUTROPHIL / NUCLEATED RED BLOOD CELLS / PLATELET COUNT: tissue Blood; for ALANINE AMINOTRANSFERASE / ALBUMIN / ALKALINE PHOSPHATASE / ASPARTATE AMINOTRANSFERASE / BLOOD UREA NITROGEN / CARBON DIOXIDE / CHLORIDE / CHOLESTEROL / CREATINE PHOSPHOKINASE / CREATININE / GLUCOSE / LACTATE DEHYDROGENASE / LIPASE / PHOSPHORUS / POTASSIUM / SODIUM / TOTAL BILIRUBIN / TOTAL PROTEIN / URIC ACID: tissue Plasma
[1] = 0 mg/kg, 72 h, dose level Control, time 3 day
[2] = 0 mg/kg, 120 h, dose level Control, time 5 day
[3] = 5 mg/kg, 72 h, dose level Low, time 3 day

## C[N+](C)(C)CCOC(N)=O.[Cl-] [CARBACHOL]
[1]
  ABSOLUTE BASOPHIL: 0 CELLS/uL
  ABSOLUTE EOSINOPHIL: 0 CELLS/uL
  ABSOLUTE LYMPHOCYTE: 8482.5 CELLS/uL
  ABSOLUTE MONOCYTE: 63.83 CELLS/uL
  ABSOLUTE SEGMENTED NEUTROPHIL: 887 CELLS/uL
  BASOPHIL: 0%
  EOSINOPHIL: 0%
  ERYTHROCYTE COUNT: 5.49 x10E6/uL
  HEMATOCRIT: 34.5%
  HEMOGLOBIN: 13.33 G/DL
  LEUKOCYTE COUNT: 9.43 x10E3/uL
  LYMPHOCYTE: 90.17%
  MEAN CORPUSCULAR HEMOGLOBIN: 24.3 pg
  MEAN CORPUSCULAR HEMOGLOBIN CONCENTRATION: 38.63 G/DL
  MEAN CORPUSCULAR VOLUME: 62.88 fL
  MONOCYTE: 0.67%
  NEUTROPHIL: 9.17%
  NUCLEATED RED BLOOD CELLS: 0.67 /100WBC
  PLATELET COUNT: 1022.83 x10E3/uL
  ALANINE AMINOTRANSFERASE: 50.5 u/L
  ALBUMIN: 4.08 G/DL
  ALKALINE PHOSPHATASE: 368.33 u/L
  ASPARTATE AMINOTRANSFERASE: 87.5 u/L
  BLOOD UREA NITROGEN: 12.83 mg/dL
  CARBON DIOXIDE: 32.83 mmol/L
  CHLORIDE: 99.67 MEQ/L
  CHOLESTEROL: 79.67 mg/dL
  CREATINE PHOSPHOKINASE: 585 u/L
  CREATININE: 0.22 mg/dL
  GLUCOSE: 135.67 mg/dL
  LACTATE DEHYDROGENASE: 171 u/L
  LIPASE: 9.5 u/L
  PHOSPHORUS: 11.18 mg/dL
  POTASSIUM: 6.25 MEQ/L
  SODIUM: 144.87 MEQ/L
  TOTAL BILIRUBIN: 0.2 mg/dL
  TOTAL PROTEIN: 6.08 G/DL
  URIC ACID: 0.65 mg/dL
[2]
  ABSOLUTE BASOPHIL: 0 CELLS/uL
  ABSOLUTE EOSINOPHIL: 14.5 CELLS/uL
  ABSOLUTE LYMPHOCYTE: 7596.17 CELLS/uL
  ABSOLUTE MONOCYTE: 69.67 CELLS/uL
  ABSOLUTE SEGMENTED NEUTROPHIL: 503 CELLS/uL
  BASOPHIL: 0%
  EOSINOPHIL: 0.17%
  ERYTHROCYTE COUNT: 5.49 x10E6/uL
  HEMATOCRIT: 34.72%
  HEMOGLOBIN: 13.47 G/DL
  LEUKOCYTE COUNT: 8.18 x10E3/uL
  LYMPHOCYTE: 92.17%
  MEAN CORPUSCULAR HEMOGLOBIN: 24.57 pg
  MEAN CORPUSCULAR HEMOGLOBIN CONCENTRATION: 38.82 G/DL
  MEAN CORPUSCULAR VOLUME: 63.3 fL
  MONOCYTE: 1%
  NEUTROPHIL: 6.67%
  NUCLEATED RED BLOOD CELLS: 0 /100WBC
  PLATELET COUNT: 1141 x10E3/uL
  ALANINE AMINOTRANSFERASE: 48.33 u/L
  ALBUMIN: 4.07 G/DL
  ALKALINE PHOSPHATASE: 395.67 u/L
  ASPARTATE AMINOTRANSFERASE: 85.67 u/L
  BLOOD UREA NITROGEN: 15.83 mg/dL
  CARBON DIOXIDE: 31.33 mmol/L
  CHLORIDE: 100.83 MEQ/L
  CHOLESTEROL: 62.33 mg/dL
  CREATINE PHOSPHOKINASE: 248.33 u/L
  CREATININE: 0.2 mg/dL
  GLUCOSE: 135.67 mg/dL
  LACTATE DEHYDROGENASE: 141.33 u/L
  LIPASE: 9.5 u/L
  PHOSPHORUS: 10.73 mg/dL
  POTASSIUM: 6.07 MEQ/L
  SODIUM: 145.35 MEQ/L
  TOTAL BILIRUBIN: 0.22 mg/dL
  TOTAL PROTEIN: 6.12 G/DL
  URIC ACID: 0.63 mg/dL
[3]
  ABSOLUTE BASOPHIL: 0 CELLS/uL
  ABSOLUTE EOSINOPHIL: 50.33 CELLS/uL
  ABSOLUTE LYMPHOCYTE: 10617 CELLS/uL
  ABSOLUTE MONOCYTE: 63 CELLS/uL
  ABSOLUTE SEGMENTED NEUTROPHIL: 603 CELLS/uL
  BASOPHIL: 0%
  EOSINOPHIL: 0.33%
  ERYTHROCYTE COUNT: 5.09 x10E6/uL
  HEMATOCRIT: 32.27%
  HEMOGLOBIN: 12.67 G/DL
  LEUKOCYTE COUNT: 11.33 x10E3/uL
  LYMPHOCYTE: 93.67%
  MEAN CORPUSCULAR HEMOGLOBIN: 24.9 pg
  MEAN CORPUSCULAR HEMOGLOBIN CONCENTRATION: 39.3 G/DL
  MEAN CORPUSCULAR VOLUME: 63.33 fL
  MONOCYTE: 0.67%
  NEUTROPHIL: 5.33%
  NUCLEATED RED BLOOD CELLS: 0 /100WBC
  PLATELET COUNT: 1098.33 x10E3/uL
  ALANINE AMINOTRANSFERASE: 65.67 u/L
  ALBUMIN: 3.93 G/DL
  ALKALINE PHOSPHATASE: 297.33 u/L
  ASPARTATE AMINOTRANSFERASE: 89.67 u/L
  BLOOD UREA NITROGEN: 12 mg/dL
  CARBON DIOXIDE: 33.67 mmol/L
  CHLORIDE: 98.33 MEQ/L
  CHOLESTEROL: 74.67 mg/dL
  CREATINE PHOSPHOKINASE: 369.33 u/L
  CREATININE: 0.19 mg/dL
  GLUCOSE: 134 mg/dL
  LACTATE DEHYDROGENASE: 123 u/L
  LIPASE: 11 u/L
  PHOSPHORUS: 11.1 mg/dL
  POTASSIUM: 5.93 MEQ/L
  SODIUM: 144.17 MEQ/L
  TOTAL BILIRUBIN: 0.13 mg/dL
  TOTAL PROTEIN: 5.83 G/DL
  URIC ACID: 0.53 mg/dL
